{
  "source": "patent US9920040B2",
  "about": "“GPR40 agonists for the treatment of type II diabetes” (Janssen Pharmaceutica NV, priority 2015, dated 2018)",
  "note": "Values joined by “and” are separate entries in the source; they are usually repeats but may differ in a detail not shown here. Equal entries are not always repeated.",
  "data": [
    {"molecular_target": "T1, human GPR40 (Homo sapiens, UniProt O14842)", "T1 construct": "expressed in transfected cells", "T1 sequence (O14842 whole entry)": "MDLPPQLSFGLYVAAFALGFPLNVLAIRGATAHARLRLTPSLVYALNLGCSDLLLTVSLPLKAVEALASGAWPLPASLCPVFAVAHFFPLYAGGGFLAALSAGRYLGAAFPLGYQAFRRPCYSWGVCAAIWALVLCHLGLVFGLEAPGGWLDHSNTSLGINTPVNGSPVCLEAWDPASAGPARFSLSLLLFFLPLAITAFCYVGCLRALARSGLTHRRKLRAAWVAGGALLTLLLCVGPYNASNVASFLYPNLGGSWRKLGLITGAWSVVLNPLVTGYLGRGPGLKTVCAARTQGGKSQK", "assay": "GPR40 calcium flux assay, human GPR40", "assay_type": "cell-based", "conditions": "transfected HEK293 cells stably expressing human GPR40; multiple values = repeated testing; read-out: hGPR40 Ca^2+ Assay EC50", "experimental": "Compounds were tested in a calcium flux assay using transfected HEK293 cells stably expressing either human GPR40 or rat GPR40. Human GPR40 expressing cells were cultured in DMEM-High Glucose media supplemented with 10% fetal bovine serum, 1×L-Glutamine, 1×Penicillin/Streptomycin and 500 μg/mL G418. Rat GPR40 expressing cells were cultured in DMEM-High Glucose media supplemented with 10% fetal bovine serum and 1 μg/mL puromycin. Cells were plated into poly-D-lysine coated 384-well plates and cultured overnight in a 37° C. humidified tissue culture incubator under 5% CO2/[…] atmosphere. On the day of the experiment, the culture media was replaced with assay buffer (HBSS, 20 mM HEPES, 0.1% BSA) and the cells incubated at 37° C. for 1 h. Calcium-sensitive fluorescent dye (Fluo 8 No-Wash Calcium Dye, ABD Bioquest) was then added and the cells incubated for another 30 min at 37° C. followed by 15 min at room temperature while protected from the light. The cell plate and a plate of diluted compounds of Formula (I) were loaded into a fluorescent plate reader that added compounds onto the cells while measuring the fluorescence intensity of each well. The plate reader recorded fluorescence intensity at 1 second intervals for 8 min and provided the data for analysis in an Excel format. EC50 values were calculated using Prism (GraphPad) software.", "values": [
      {"smiles": "COc1ccc(F)c(-c2onc(COc3cccc([C@@H](CC(=O)O)C4CC4)c3)c2OC2CC(C)(C)CC(C)(C)C2)c1", "note": "[Cpd 3, (3S)-3-cyclopropyl-3-[3-[[5-(2-fluoro-5-methoxy-phenyl)-4-(3,3,5,5-tetramethylcyclohexoxy)isoxazol-3-yl]methoxy]phenyl]propanoic acid]", "EC50": "5 nM"},
      {"smiles": "COc1ccc(F)c(-c2onc(COc3cccc([C@@H](CC(=O)O)C4CC4)c3)c2OCC2C(C)(C)C2(C)C)c1", "note": "[Cpd 11, (3S)-3-cyclopropyl-3-[3-[[5-(2-fluoro-5-methoxy-phenyl)-4-[(2,2,3,3-tetramethylcyclopropyl)methoxy]isoxazol-3-yl]methoxy]phenyl]propanoic acid]", "EC50": "58 nM"},
      {"smiles": "COc1cc(-c2onc(COc3cccc([C@@H](CC(=O)O)C4CC4)c3)c2CC(C)C)c(F)cn1", "note": "[Cpd 12, (3S)-3-cyclopropyl-3-[3-[[5-(5-fluoro-2-methoxy-4-pyridyl)-4-isobutyl-isoxazol-3-yl]methoxy]phenyl]propanoic acid]", "EC50": "1270 nM"},
      {"smiles": "COc1ccc(F)c(-c2scc(COc3cccc([C@@H](CC(=O)O)C4CC4)c3)c2C2=CCCC2(C)C)c1", "note": "[Cpd 13, (3S)-3-cyclopropyl-3-[3-[[4-(5,5-dimethylcyclopenten-1-yl)-5-(2-fluoro-5-methoxy-phenyl)-3-thienyl]methoxy]phenyl]propanoic acid]", "EC50": "53 nM and 51 nM and 22 nM and 13 nM and 87 nM and 71 nM"},
      {"smiles": "COc1ccc(F)c(-c2scc(COc3cccc([C@@H](CC(=O)O)C4CC4)c3)c2C2CC2)c1", "note": "[Cpd 14, (3S)-3-cyclopropyl-3-[3-[[4-cyclopropyl-5-(2-fluoro-5-methoxy-phenyl)-3-thienyl]methoxy]phenyl]propanoic acid]", "EC50": "108 nM and 89 nM"},
      {"smiles": "CC1(C)CCC=C1c1c(COc2cccc([C@@H](CC(=O)O)C3CC3)c2)csc1-c1ccsc1", "note": "[Cpd 16, (3S)-3-cyclopropyl-3-[3-[[4-(5,5-dimethylcyclopenten-1-yl)-5-(3-thienyl)-3-thienyl]methoxy]phenyl]propanoic acid]", "EC50": "87 nM and 65 nM"},
      {"smiles": "CN(C)c1cccc(-c2scc(COc3cccc([C@@H](CC(=O)O)C4CC4)c3)c2C2=CCCC2(C)C)c1", "note": "[Cpd 17, (3S)-3-cyclopropyl-3-[3-[[5-[3-(dimethylamino)phenyl]-4-(5,5-dimethylcyclopenten-1-yl)-3-thienyl]methoxy]phenyl]propanoic acid]", "EC50": "242 nM and 232 nM"},
      {"smiles": "COc1ccc(-c2scc(COc3cccc([C@@H](CC(=O)O)C4CC4)c3)c2C2=CCCC2(C)C)c(F)c1", "note": "[Cpd 18, (3S)-3-cyclopropyl-3-[3-[[4-(5,5-dimethylcyclopenten-1-yl)-5-(2-fluoro-4-methoxy-phenyl)-3-thienyl]methoxy]phenyl]propanoic acid]", "EC50": "305 nM and 152 nM"},
      {"smiles": "COc1ccc(F)c(-c2scc(COc3cccc([C@@H](CC(=O)O)C4CC4)c3)c2C(C)C(F)(F)F)c1", "note": "(stereo partly drawn) [Cpd 19, (3S)-3-cyclopropyl-3-[3-[[5-(2-fluoro-5-methoxy-phenyl)-4-(2,2,2-trifluoro-1-methyl-ethyl)-3-thienyl]methoxy]phenyl]propanoic acid]", "EC50": "253 nM and 128 nM"},
      {"smiles": "CC1(C)CCC=C1c1c(COc2cccc([C@@H](CC(=O)O)C3CC3)c2)csc1-c1ccccc1", "note": "[Cpd 20, (3S)-3-cyclopropyl-3-[3-[[4-(5,5-dimethylcyclopenten-1-yl)-5-phenyl-3-thienyl]methoxy]phenyl]propanoic acid]", "EC50": "79 nM and 71 nM"},
      {"smiles": "CC1(C)CCC=C1c1c(COc2cccc([C@@H](CC(=O)O)C3CC3)c2)csc1-c1ccccc1F", "note": "[Cpd 21, (3S)-3-cyclopropyl-3-[3-[[4-(5,5-dimethylcyclopenten-1-yl)-5-(2-fluorophenyl)-3-thienyl]methoxy]phenyl]propanoic acid]", "EC50": "110 nM and 66 nM"},
      {"smiles": "COc1ccccc1-c1scc(COc2cccc([C@@H](CC(=O)O)C3CC3)c2)c1C1=CCCC1(C)C", "note": "[Cpd 22, (3S)-3-cyclopropyl-3-[3-[[4-(5,5-dimethylcyclopenten-1-yl)-5-(2-methoxyphenyl)-3-thienyl]methoxy]phenyl]propanoic acid]", "EC50": "47 nM and 41 nM"},
      {"smiles": "COc1cc(OC)cc(-c2scc(COc3cccc([C@@H](CC(=O)O)C4CC4)c3)c2C2=CCCC2(C)C)c1", "note": "[Cpd 23, (3S)-3-cyclopropyl-3-[3-[[5-(3,5-dimethoxyphenyl)-4-(5,5-dimethylcyclopenten-1-yl)-3-thienyl]methoxy]phenyl]propanoic acid]", "EC50": "16 nM and 15 nM"},
      {"smiles": "CC1(C)CCC=C1c1c(COc2cccc([C@@H](CC(=O)O)C3CC3)c2)csc1-c1cccc2[nH]ccc12", "note": "[Cpd 24, (3S)-3-cyclopropyl-3-[3-[[4-(5,5-dimethylcyclopenten-1-yl)-5-(1H-indol-4-yl)-3-thienyl]methoxy]phenyl]propanoic acid]", "EC50": "68 nM and 66 nM"},
      {"smiles": "CC1(C)CCC=C1c1c(COc2cccc([C@@H](CC(=O)O)C3CC3)c2)csc1-c1cccc2occc12", "note": "[Cpd 25, (3S)-3-[3-[[5-(benzofuran-4-yl)-4-(5,5-dimethylcyclopenten-1-yl)-3-thienyl]methoxy]phenyl]-3-cyclopropyl-propanoic acid]", "EC50": "101 nM and 68 nM"},
      {"smiles": "COc1cccc(-c2scc(COc3cccc([C@@H](CC(=O)O)C4CC4)c3)c2C2=CCCC2(C)C)c1", "note": "[Cpd 26, (3S)-3-cyclopropyl-3-[3-[[4-(5,5-dimethylcyclopenten-1-yl)-5-(3-methoxyphenyl)-3-thienyl]methoxy]phenyl]propanoic acid]", "EC50": "26 nM and 24 nM"},
      {"smiles": "COc1cc(-c2scc(COc3cccc([C@@H](CC(=O)O)C4CC4)c3)c2C2=CCCC2(C)C)c(F)cn1", "note": "[Cpd 27, (3S)-3-cyclopropyl-3-[3-[[4-(5,5-dimethylcyclopenten-1-yl)-5-(5-fluoro-2-methoxy-4-pyridyl)-3-thienyl]methoxy]phenyl]propanoic acid]", "EC50": "53 nM and 42 nM"},
      {"smiles": "COc1cncc(-c2scc(COc3cccc([C@@H](CC(=O)O)C4CC4)c3)c2C2=CCCC2(C)C)c1", "note": "[Cpd 28, (3S)-3-cyclopropyl-3-[3-[[4-(5,5-dimethylcyclopenten-1-yl)-5-(5-methoxy-3-pyridyl)-3-thienyl]methoxy]phenyl]propanoic acid]", "EC50": "83 nM and 74 nM"},
      {"smiles": "COc1ccc(F)c(-c2sc(Cl)c(COc3cccc([C@@H](CC(=O)O)C4CC4)c3)c2C(C)C(F)(F)F)c1", "note": "(stereo partly drawn) [Cpd 29, (3S)-3-[3-[[2-chloro-5-(2-fluoro-5-methoxy-phenyl)-4-(2,2,2-trifluoro-1-methyl-ethyl)-3-thienyl]methoxy]phenyl]-3-cyclopropyl-propanoic acid]", "EC50": "320 nM and 211 nM"},
      {"smiles": "COc1ccc(F)c(-c2snc(COc3cccc([C@@H](CC(=O)O)C4CC4)c3)c2C2=CCCC2(C)C)c1", "note": "[Cpd 30, (3S)-3-cyclopropyl-3-[3-[[4-(5,5-dimethylcyclopenten-1-yl)-5-(2-fluoro-5-methoxy-phenyl)isothiazol-3-yl]methoxy]phenyl]propanoic acid]", "EC50": "32 nM and 27 nM"},
      {"smiles": "COc1cc(-c2scc(COc3cccc([C@@H](CC(=O)O)C4CC4)c3)c2C2=CCCC2(C)C)ccn1", "note": "[Cpd 31, (3S)-3-cyclopropyl-3-[3-[[4-(5,5-dimethylcyclopenten-1-yl)-5-(2-methoxy-4-pyridyl)-3-thienyl]methoxy]phenyl]propanoic acid]", "EC50": "258 nM and 162 nM"},
      {"smiles": "COc1ccc(F)c(-c2onc(COc3cccc([C@@H](CC(=O)O)C4CC4)c3)c2-c2ccc(C)s2)c1", "note": "[Cpd 32, (3S)-3-cyclopropyl-3-[3-[[5-(2-fluoro-5-methoxy-phenyl)-4-(5-methyl-2-thienyl)isoxazol-3-yl]methoxy]phenyl]propanoic acid]", "EC50": "31 nM and 27 nM"}
    ]}
  ]
}
